This note sets out measurements from publication PMC2904498 (2010).

Molecules are shown by their SMILES. Read-outs that look alike come from different tables or passages of the source.

Experiment [1] concerns the target T1, T. brucei neutral sphingomyelinase (TbnSMase) (Trypanosoma brucei, UniProt B9WNA2).
T1 sequence (B9WNA2 1-580): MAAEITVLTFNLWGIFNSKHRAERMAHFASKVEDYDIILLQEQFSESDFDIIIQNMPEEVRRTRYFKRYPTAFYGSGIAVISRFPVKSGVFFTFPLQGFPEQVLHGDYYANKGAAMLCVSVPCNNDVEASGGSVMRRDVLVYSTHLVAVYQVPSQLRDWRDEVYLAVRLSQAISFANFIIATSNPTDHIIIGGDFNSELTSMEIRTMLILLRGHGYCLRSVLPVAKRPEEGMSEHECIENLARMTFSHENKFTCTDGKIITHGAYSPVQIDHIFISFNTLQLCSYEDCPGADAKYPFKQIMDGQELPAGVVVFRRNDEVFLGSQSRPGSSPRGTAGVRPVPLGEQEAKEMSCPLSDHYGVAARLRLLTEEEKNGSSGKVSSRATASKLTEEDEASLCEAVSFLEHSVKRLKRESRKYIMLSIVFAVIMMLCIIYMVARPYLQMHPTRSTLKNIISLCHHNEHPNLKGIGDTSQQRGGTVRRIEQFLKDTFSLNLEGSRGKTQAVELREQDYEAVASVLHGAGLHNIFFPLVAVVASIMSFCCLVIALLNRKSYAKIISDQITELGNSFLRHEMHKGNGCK
It counts as biochemical.

Experiment [2] addresses T1, T. brucei neutral sphingomyelinase (TbnSMase). The experiment is classed as biochemical. This is another data set of the same source.

As a reminder, the IC50 is the concentration that gives 50% inhibition. `O=C(/C=C/c1ccc(/C=C/C(=O)Nc2ccc(C3=NCCN3)cc2)cc1)Nc1ccc(C2=NCCN2)cc1` [GW4869] displayed an IC50 in experiment [1] of 14.4 ± 2.3 µM.
In the case of `CCCC[C@@H](C)/C=C(C)/C=C(\C)C(=O)NC1=C[C@@](O)(/C=C/C=C/C=C/C(=O)NC2=C(O)CCC2=O)[C@@H]2O[C@@H]2C1=O` [Manumycin A], in experiment [1], half-maximal inhibition (IC50) was put at 24.6 ± 4.6 µM.
For the molecule `CCCCCCCCCCCCCCCCCCOCC(COP(=O)([O-])OCC[N+](C)(C)C)OC` (stereo not drawn) [edelfosine], half-maximal inhibition in experiment [2] (IC50) was put at 21 ± 3.2 µM.
